From patent publication US7846941B2, “Compounds modulating c-kit and c-fms activity and uses therefor” (Plexxikon, Inc., priority 2005, dated 2010)

Test system: cells with activating c-kit mutations
Assay: not given
Conditions: mutations in the catalytic region of c-kit; cited from earlier work

Compound | inhibition of cells with c-kit mutations
Cc1ccc(NC(=O)c2ccc(CN3CCN(C)CC3)cc2)cc1Nc1nccc(-c2cccnc2)n1 [STI571] | did not inhibit

Target: c-kit (Homo sapiens, UniProt P10721)
Assay: c-kit assays of Examples 40 and 41 (AlphaScreen and 33P kinase assays, M-07e proliferation and phosphorylation)
Conditions: not given

Chain of c-kit (P10721 with tags, fused parts or gaps): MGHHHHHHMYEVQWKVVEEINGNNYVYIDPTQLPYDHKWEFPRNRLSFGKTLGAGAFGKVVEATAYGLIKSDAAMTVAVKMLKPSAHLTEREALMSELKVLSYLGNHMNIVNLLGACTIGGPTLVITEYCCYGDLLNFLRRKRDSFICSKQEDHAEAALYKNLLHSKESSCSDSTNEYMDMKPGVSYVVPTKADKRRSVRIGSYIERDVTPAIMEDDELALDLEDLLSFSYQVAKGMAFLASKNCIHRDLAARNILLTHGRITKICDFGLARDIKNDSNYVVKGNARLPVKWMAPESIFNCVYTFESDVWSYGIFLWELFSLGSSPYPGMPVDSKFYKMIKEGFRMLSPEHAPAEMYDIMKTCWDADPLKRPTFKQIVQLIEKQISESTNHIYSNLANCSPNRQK

Compound | IC50 [nM]
Clc1ccc(CNc2ccc(Cc3c[nH]c4nccc(Cl)c34)cn2)cc1 [Compound P-0009, [5-(4-chloro-1H-pyrrolo[2,3-b]pyridin-3-ylmethyl)-pyridin-2-yl]-(4-chloro-benzyl)-amine] | < 1000
O=C(c1ccc(NCc2cccc(F)c2)nc1)c1c[nH]c2ncccc12 [Compound P-0016, [6-(3-Fluoro-benzylamino)-pyridin-3-yl]-(1H-pyrrolo[2,3-b]pyridin-3-yl)-methanone] | < 1000
CC(C)(C)Oc1ccc(Cc2c[nH]c3ncccc23)cn1 [Compound P-0020, 3-(6-tert-Butoxy-pyridin-3-ylmethyl)-1H-pyrrolo[2,3-b]pyridine] | < 1000
CC(C)Nc1ccc(C(=O)c2c[nH]c3ncccc23)cn1 [Compound P-0024, (6-Isopropylamino-pyridin-3-yl)-(1H-pyrrolo[2,3-b]pyridin-3-yl)-methanone] | < 1000
CC(C)CNc1ccc(C(=O)c2c[nH]c3ncccc23)cn1 [Compound P-0025, (6-Isobutylamino-pyridin-3-yl)-(1H-pyrrolo[2,3-b]pyridin-3-yl)-methanone] | < 1000
O=C(c1ccc(Nc2cccc(OCc3ccccc3)c2)nc1)c1c[nH]c2ncccc12 [Compound P-0026, [6-(3-Benzyloxy-phenylamino)-pyridin-3-yl]-(1H-pyrrolo[2,3-b]pyridin-3-yl)-methanone] | < 1000
O=C(c1ccc(NCC2CC2)nc1)c1c[nH]c2ncccc12 [Compound P-0030, [6-(Cyclopropylmethyl-amino)-pyridin-3-yl]-(1H-pyrrolo[2,3-b]pyridin-3-yl)-methanone] | < 1000
O=C(c1ccc(NCC2CCCCC2)nc1)c1c[nH]c2ncccc12 [Compound P-0031, [6-(Cyclohexylmethyl-amino)-pyridin-3-yl]-(1H-pyrrolo[2,3-b]pyridin-3-yl)-methanone] | < 1000
c1cnc2[nH]cc(Cc3ccc(NCC4CCCCC4)nc3)c2c1 [Compound P-0033, Cyclohexylmethyl-[5-(1H-pyrrolo[2,3-b]pyridin-3-ylmethyl)-pyridin-2-yl]-amine] | < 1000
COc1cnc2[nH]cc(Cc3ccc(NCc4ccc(Cl)cc4)nc3)c2c1 [Compound P-0058, (4-Chloro-benzyl)-[5-(5-methoxy-1H-pyrrolo[2,3-b]pyridin-3-ylmethyl)-pyridin-2-yl]-amine] | < 1000
Clc1ccc(CNc2ccc(Cc3c[nH]c4ncc(Cl)cc34)cn2)cc1 [Compound P-0059, (4-Chloro-benzyl)-[5-(5-chloro-1H-pyrrolo[2,3-b]pyridin-3-ylmethyl)-pyridin-2-yl]-amine] | < 1000
Oc1cnc2[nH]cc(Cc3ccc(NCc4ccc(Cl)cc4)nc3)c2c1 [Compound P-0062, 3-[6-(4-Chloro-benzylamino)-pyridin-3-ylmethyl]-1H-pyrrolo[2,3-b]pyridin-5-ol] | < 1000
Clc1ccc(CNc2ccc(Cc3c[nH]c4ncc(OCCN5CCOCC5)cc34)cn2)cc1 [Compound P-0063, (4-Chloro-benzyl)-{5-[5-(2-morpholin-4-yl-ethoxy)-1H-pyrrolo[2,3-b]pyridin-3-ylmethyl]-pyridin-2-yl}-amine] | < 1000
CCN(CC)CCCOc1cnc2[nH]cc(Cc3ccc(NCc4ccc(Cl)cc4)nc3)c2c1 [Compound P-0069, (4-Chloro-benzyl)-{5-[5-(3-diethylamino-propoxy)-1H-pyrrolo[2,3-b]pyridin-3-ylmethyl]-pyridin-2-yl}-amine] | < 1000

Continued, values first:

IC50 [nM] | Compound
< 1000 | FC(F)(F)c1ccc(CNc2ccc(Cc3c[nH]c4ncccc34)cn2)cc1 [Compound P-0003, [5-(1H-Pyrrolo[2,3-b]pyridin-3-ylmethyl)-pyridin-2-yl]-(4-trifluoromethyl-benzyl)-amine]
< 1000 | COc1nc(NCc2ccc(C(F)(F)F)cc2)ccc1Cc1c[nH]c2ncccc12 [Compound P-0012, [6-Methoxy-5-(1H-pyrrolo[2,3-b]pyridin-3-ylmethyl)-pyridin-2-yl]-(4-trifluoromethyl-benzyl)-amine]
< 1000 | CC(C)CNc1ccc(Cc2c[nH]c3ncccc23)cn1 [Compound P-0028, Isobutyl-[5-(1H-pyrrolo[2,3-b]pyridin-3-ylmethyl)-pyridin-2-yl]-amine]
< 1000 | c1cnc2[nH]cc(Cc3ccc(NCC4CC4)nc3)c2c1 [Compound P-0032, Cyclopropylmethyl-[5-(1H-pyrrolo[2,3-b]pyridin-3-ylmethyl)-pyridin-2-yl]-amine]
< 1000 | COc1cnc2[nH]cc(Cc3ccc(NCc4ccc(C(F)(F)F)cc4)nc3)c2c1 [Compound P-0053, [5-(5-Methoxy-1H-pyrrolo[2,3-b]pyridin-3-ylmethyl)-pyridin-2-yl]-(4-trifluoromethyl-benzyl)-amine]
< 1000 | FC(F)(F)c1ccc(CNc2ccc(Cc3c[nH]c4ncc(Cl)cc34)cn2)cc1 [Compound P-0054, [5-(5-Chloro-1H-pyrrolo[2,3-b]pyridin-3-ylmethyl)-pyridin-2-yl]-(4-trifluoromethyl-benzyl)-amine]
< 1000 | Clc1cccc(COc2ccc(Cc3c[nH]c4ncccc34)cn2)c1 [Compound P-0055, 3-[6-(3-Chloro-benzyloxy)-pyridin-3-ylmethyl]-1H-pyrrolo[2,3-b]pyridine]
< 1000 | Clc1ccc(COc2ccc(Cc3c[nH]c4ncccc34)cn2)cc1 [Compound P-0056, 3-[6-(4-Chloro-benzyloxy)-pyridin-3-ylmethyl]-1H-pyrrolo[2,3-b]pyridine]
< 1000 | FC(F)(F)c1cccc(COc2ccc(Cc3c[nH]c4ncccc34)cn2)c1 [Compound P-0057, 3-[6-(3-Trifluoromethyl-benzyloxy)-pyridin-3-ylmethyl]-1H-pyrrolo[2,3-b]pyridine]
< 1000 | CCN(CC)CCOc1cnc2[nH]cc(Cc3ccc(NCc4ccc(C(F)(F)F)cc4)nc3)c2c1 [Compound P-0060, {5-[5-(2-Diethylamino-ethoxy)-1H-pyrrolo[2,3-b]pyridin-3-ylmethyl]-pyridin-2-yl}-(4-trifluoromethyl-benzyl)-amine]
< 1000 | Oc1cnc2[nH]cc(Cc3ccc(NCc4ccc(C(F)(F)F)cc4)nc3)c2c1 [Compound P-0061, 3-[6-(4-Trifluoromethyl-benzylamino)-pyridin-3-ylmethyl]-1H-pyrrolo[2,3-b]pyridin-5-ol]
< 1000 | FC(F)(F)c1ccc(CNc2ccc(Cc3c[nH]c4ncc(OCCN5CCCC5)cc34)cn2)cc1 [Compound P-0064, {5-[5-(2-Pyrrolidin-1-yl-ethoxy)-1H-pyrrolo[2,3-b]pyridin-3-ylmethyl]-pyridin-2-yl}-(4-trifluoromethyl-benzyl)-amine]
< 1000 | FC(F)(F)c1ccc(CNc2ccc(Cc3c[nH]c4ncc(OCCN5CCOCC5)cc34)cn2)cc1 [Compound P-0065, {5-[5-(2-Morpholin-4-yl-ethoxy)-1H-pyrrolo[2,3-b]pyridin-3-ylmethyl]-pyridin-2-yl}-(4-trifluoromethyl-benzyl)-amine]
< 1000 | CCN(CC)CCCOc1cnc2[nH]cc(Cc3ccc(NCc4ccc(C(F)(F)F)cc4)nc3)c2c1 [Compound P-0066, {5-[5-(3-Diethylamino-propoxy)-1H-pyrrolo[2,3-b]pyridin-3-ylmethyl]-pyridin-2-yl}-(4-trifluoromethyl-benzyl)-amine]
< 1000 | O=S(=O)(Nc1ccc(Cc2c[nH]c3ncccc23)cn1)c1ccc(C(F)(F)F)cc1 [Compound P-0071, N-[5-(1H-Pyrrolo[2,3-b]pyridin-3-ylmethyl)-pyridin-2-yl]-4-trifluoromethyl-benzenesulfonamide]
< 1000 | O=C(Nc1ccc(Cc2c[nH]c3ncccc23)cn1)c1ccc(C(F)(F)F)cc1 [Compound P-0072, N-[5-(1H-Pyrrolo[2,3-b]pyridin-3-ylmethyl)-pyridin-2-yl]-4-trifluoromethyl-benzamide]
< 1000 | O=C(Nc1ccc(Cc2c[nH]c3ncccc23)cn1)c1ccc(F)cc1 [Compound P-0073, 4-Fluoro-N-[5-(1H-pyrrolo[2,3-b]pyridin-3-ylmethyl)-pyridin-2-yl]-benzamide]
< 1000 | O=C(Nc1ccc(Cc2c[nH]c3ncccc23)cn1)c1ccc(Cl)cc1 [Compound P-0074, 4-Chloro-N-[5-(1H-pyrrolo[2,3-b]pyridin-3-ylmethyl)-pyridin-2-yl]-benzamide]
< 1000 | C[C@H](Nc1ccc(Cc2c[nH]c3ncccc23)cn1)c1ccc(Cl)cc1 [Compound P-0075, [(S)-1-(4-Chloro-phenyl)-ethyl]-[5-(1H-pyrrolo[2,3-b]pyridin-3-ylmethyl)-pyridin-2-yl]-amine]
< 1000 | Clc1ccc(NCc2ccc(Cc3c[nH]c4ncccc34)cn2)cc1 [Compound P-0078, (4-Chloro-phenyl)-[5-(1H-pyrrolo[2,3-b]pyridin-3-ylmethyl)-pyridin-2-ylmethyl]-amine]
< 1000 | Fc1nc(NCc2ccc(Cl)cc2)ccc1Cc1c[nH]c2ncccc12 [Compound P-0082, (4-Chloro-benzyl)-[6-fluoro-5-(1H-pyrrolo[2,3-b]pyridin-3-ylmethyl)-pyridin-2-yl]-amine]
